Experimental data taken from article PMC5478869, “New Hydroxycinnamic Acid Esters as Novel 5-Lipoxygenase Inhibitors That Affect Leukotriene Biosynthesis” (Mediators of Inflammation, 2017).
“Also recorded” adds a separate entry of the source.

Key:
5-LO [1] = target: T1, 5-LO (Homo sapiens, UniProt P09917); assay: Biosynthesis of 5-LO products in HEK293 cells expressing 5-LO and FLAP (A23187 + arachidonic acid); format: cell-based; parameters: expressed in transfected cells; host or cells: HEK293; details: 1 μM compound, 10 μM A23187 + 10 μM arachidonic acid, 15 min
T1 sequence (P09917 1-674): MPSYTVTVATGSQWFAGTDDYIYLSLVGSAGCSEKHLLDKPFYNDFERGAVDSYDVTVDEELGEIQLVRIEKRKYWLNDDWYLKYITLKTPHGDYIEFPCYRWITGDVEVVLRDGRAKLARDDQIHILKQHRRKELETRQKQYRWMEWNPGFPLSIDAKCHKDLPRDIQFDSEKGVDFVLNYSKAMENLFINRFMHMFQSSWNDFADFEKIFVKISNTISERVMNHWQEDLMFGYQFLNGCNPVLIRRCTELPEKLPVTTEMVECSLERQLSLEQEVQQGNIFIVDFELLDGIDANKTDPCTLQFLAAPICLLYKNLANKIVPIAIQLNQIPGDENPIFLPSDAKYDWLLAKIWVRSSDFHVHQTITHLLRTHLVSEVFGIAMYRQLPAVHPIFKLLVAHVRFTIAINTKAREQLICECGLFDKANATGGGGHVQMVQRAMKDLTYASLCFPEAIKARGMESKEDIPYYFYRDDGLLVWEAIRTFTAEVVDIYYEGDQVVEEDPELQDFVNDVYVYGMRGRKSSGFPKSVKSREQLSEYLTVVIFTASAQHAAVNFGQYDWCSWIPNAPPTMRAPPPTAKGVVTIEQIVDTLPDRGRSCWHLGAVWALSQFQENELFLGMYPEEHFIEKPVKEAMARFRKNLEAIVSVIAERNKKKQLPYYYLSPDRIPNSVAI
Procedure: HEK293 cells expressing both 5-LO and the 5-lipoxygenase activating protein (FLAP) were generated as previously reported. For cell stimulation of 5-LO products, transfected HEK293 cells were collected following trypsinization and washed and the cell pellet was resuspended in Hank's balanced salt solution (HBSS, Lonza) containing 1.6 mM CaCl2 at a concentration of 5 × 10^5 cells/ml. Cells were preincubated with each compound at the indicated concentration for 5 min at 37°C. Cells were then stimulated for 15 minutes at 37°C with the addition of 10 μM calcium ionophore A23187 (Sigma-Aldrich) and 10 μM arachidonic acid (Cayman Chemical). Stimulations were stopped by adding 0.5 volume of cold MeOH:MeCN (1 : 1) containing 100 ng/ml of 19-OH prostaglandin B2 (PGB2) as internal standard. Samples were then processed and 5-LO products were analyzed by reversed-phase high-performance liquid chromatography (RP-HPLC) as described previously.
To evaluate CAPE analogues as potential inhibitors of the biosynthesis of 5-LO products, a first series of experiments was performed in HEK293 cells expressing both 5-LO and FLAP as previously described. HEK293 cells were first preincubated with the test compounds (1 μM), then stimulated in the presence of arachidonic acid and calcium ionophore A23187 to induce the biosynthesis of 5-LO products (Figure 2(a)). […] Based on these criteria, compounds 9, 13, 14, 15, 16, and 19 were selected for subsequent analyses.
(§1) Figure 2 Effect of the test compounds on the biosynthesis of 5-LO products in transfected HEK293 cells (a) and thapsigargin-stimulated PMNL (b). (a) HEK293 cells expressing both 5-LO and FLAP were incubated in presence of the indicated compounds (1 μM) or their diluent (control, 0.5% DMSO) for 5 min, then biosynthesis of 5-LO products was initiated with the addition of 10 μM calcium ionophore A23187 and 10 μM arachidonic acid for 15 min. After stimulation, reactions were stopped and samples were processed for analysis of 5-LO products by RP-HPLC. Total 5-LO products measured represent the sum of LTB4, its trans isomers, and 5-hydroxyeicosatetraenoic acid. (b) Freshly isolated human PMNL were incubated in presence of test compounds (or their diluent control, DMSO 0.5%) at the indicated concentrations for 5 min. Biosynthesis of the 5-LO products was initiated with the addition of 1 μM of thapsigargin, followed by a 15 min incubation period at 37°C. The stimulation was then stopped and samples were processed for RP-HPLC analysis and total 5-LO products quantification. Total 5-LO products measured represent the sum of LTB4, its trans isomers, 20-COOH- and 20-OH-LTB4 and 5-hydroxyeicosatetraenoic acid. Data are expressed as means ± SEM of at least 3 independent experiments. ^∗Different from control, as determined by one-way ANOVA with Dunnett's multiple comparison test (p < 0.05).

5-LO [2] = target: T1, 5-LO; assay: Biosynthesis of 5-LO products by thapsigargin-stimulated PMNL; format: cell-based; parameters: endogenous in cells; host or cells: human polymorphonuclear leukocytes (PMNL) isolated from whole blood; details: freshly isolated human PMNL, 5 min preincubation, 1 μM thapsigargin 15 min; 95% CI in brackets; read-out: IC50 (95% CI) for the inhibition of 5-LO product biosynthesis in human PMNL
Procedure: Polymorphonuclear leukocytes (PMNL) were isolated as previously described. Briefly, whole blood was collected (with anticoagulant citrate dextrose (ACD)) and then centrifuged at 500 g for 10 min. Platelet-rich plasma (PRP) was set aside for platelet isolation (see below), and erythrocytes were removed by dextran sedimentation. After a centrifugation step at 900 g × 20 min at room temperature on a lymphocyte separation medium cushion (density, 1.077 g/ml) (Wisent), PMNL were obtained (>96%) followed by hypotonic lysis of the remaining erythrocytes. PMNL were counted and resuspended at 10^7 cells/ml in HBSS supplemented with 1.6 mM CaCl2. PRP was processed as previously described for platelet isolation. Briefly, PRP was centrifuged at 400 g for 2 min at room temperature to remove the remaining erythrocytes. The supernatant was then centrifuged at 1300g for 10 min to pellet platelets. Cells were resuspended in Tyrode Buffer pH 7.4 (134 mM NaCl, 2.9 mM KCl, 0.34 mM Na2HPO4, 12 mM NaHCO3, 20 mM HEPES, 1 mM MgCl2, 5 mM glucose, and 0.5 mg/ml BSA) at 3 × 10^8 cells/ml in the presence of 5 mM CaCl2.
Suspended PMNL (10^7 cells/ml) were incubated at 37°C with adenosine deaminase (0.3 U/ml, Sigma-Aldrich) and test compounds at indicated concentrations 5 min before stimulation. To initiate stimulation, 1 μM of thapsigargin (Sigma-Aldrich) was added to cells which were then incubated for 15 min at 37°C [31]. Two volumes of MeOH:MeCN (1 : 1) containing the internal standard PGB2 (100 ng/ml) was then added, and samples were processed for RP-HPLC analysis as described above.
Statistical analysis and graph design were performed with GraphPad Prism 5 software (GraphPad Software, San Diego, California). IC50 values were calculated from a sigmoidal concentration-response curve-fitting model and are expressed as means with 95% confidence intervals. All other data are expressed as mean ± SEM. One-way ANOVA with Dunnett's multiple comparison test (p < 0.05) were performed to determine significant difference from controls.
as §1

| Compound | IC50 (5-LO [2]) | Inhibition of biosynthesis of 5-LO products in transfected HEK293 cells (5-LO [1]) |
| --- | --- | --- |
| O=C(/C=C/c1ccc(O)c(O)c1)OCCc1ccccc1 [CAPE (2), Caffeic acid phenethyl ester, reference compound] | 790 nM | significantly inhibited the biosynthesis of 5-LO products |
| O=C(/C=C/c1ccc(O)c(O)c1)OCCCc1ccccc1 [Compound 13] | 490 nM | showed similar or better inhibitory activity than the reference compound CAPE (2), or decreased the biosynthesis of 5-LO products by more than 50% |
| O=C(/C=C/c1ccc(O)c(O)c1)OCCc1ccc(F)cc1 [Compound 14] | 1010 nM | showed similar or better inhibitory activity than the reference compound CAPE (2), or decreased the biosynthesis of 5-LO products by more than 50% |
| Cc1ccc(CCOC(=O)/C=C/c2ccc(O)c(O)c2)cc1 [Compound 15] | 1040 nM | showed similar or better inhibitory activity than the reference compound CAPE (2), or decreased the biosynthesis of 5-LO products by more than 50% |
| COc1ccc(CCOC(=O)/C=C/c2ccc(O)c(O)c2)cc1 [Compound 16] | 1290 nM | showed similar or better inhibitory activity than the reference compound CAPE (2), or decreased the biosynthesis of 5-LO products by more than 50% |

Further compounds by falling IC50 (5-LO [2]), results first:

| IC50 (5-LO [2]) | Compound | Inhibition of biosynthesis of 5-LO products in transfected HEK293 cells (5-LO [1]) |
| --- | --- | --- |
| 870 nM | C=C(C)CCOC(=O)/C=C/c1ccc(O)c(O)c1 [Compound 9] | showed similar or better inhibitory activity than the reference compound CAPE (2), or decreased the biosynthesis of 5-LO products by more than 50%; also recorded: best inhibitory activity amongst the compounds from the aliphatic series |
| 530 nM | O=C(/C=C/c1ccc(O)c(O)c1)OCC(c1ccccc1)c1ccccc1 [Compound 19] | showed similar or better inhibitory activity than the reference compound CAPE (2), or decreased the biosynthesis of 5-LO products by more than 50% |
